In ChEMBL document CHEMBL1142756, “Total synthesis and antiangiogenic activity of cyclopentane analogues of fumagillol” (Bioorg Med Chem Lett, 2005) one finds IC50 data, which are given here for 4 molecules.

What all share (format): functional, cell-based
Assay [1] is described as follows: Inhibitory concentration against Calf pulmonary artery endothelial cells (CPAE) measured for endothelial cell proliferation activity. The note with it: Bos taurus.
In assay [2] the test system is P388. The assay is described as follows: Inhibitory concentration against Murine leukemia P388 measured for endothelial cell proliferation activity. The note with it: Mus musculus.
Assay [3] can be described thus: Inhibitory concentration against Lymphoma EC4 cells measured for endothelial cell proliferation activity. The note with it: Homo sapiens.

Converted amounts (≈) assume the structure as drawn. A value given as a limit tells only on which side of the number the result lay.

Regarding `CO[C@@H]1[C@H](OC(=O)NC(=O)CCl)C[C@]2(CO2)[C@H]1[C@]1(C)O[C@H]1CCC(C)C`, the IC50 is 0.57 µg/mL (≈ 1.46 µM) in assay [1], no less than 10 µg/mL in assay [2] and 1.1 µg/mL (≈ 2.82 µM) in assay [3].
For `CO[C@@H]1[C@H](OC(=O)NC(=O)CCl)C[C@]2(CO2)[C@H]1[C@@]1(C)O[C@@H]1CCC(C)C` the same measures were 0.088 µg/mL (≈ 0.226 µM), no less than 10 µg/mL and 0.3 µg/mL (≈ 0.769 µM).
The corresponding values for `CO[C@@H]1[C@H](OC(=O)/C=C/C=C/C=C/C=C/C(=O)O)CC[C@]2(CO2)[C@H]1[C@@]1(C)OC1CC=C(C)C` (single isomer, unassigned) [FUMAGILLIN] are 0.003 µg/mL (≈ 0.00654 µM), no less than 10 µg/mL and 0.0016 µg/mL (≈ 0.00349 µM).
The corresponding values for `CO[C@@H]1[C@H](OC(=O)NC(=O)CCl)CC[C@]2(CO2)[C@H]1[C@@]1(C)OC1CC=C(C)C` (single isomer, unassigned) [O-CHLOROACETYLCARBAMOYLFUMAGILLOL] are 0.0002 µg/mL (≈ 0.000498 µM), no less than 10 µg/mL and 0.0038 µg/mL (≈ 0.00946 µM).

In general, IC50 refers to the concentration that inhibits the measured activity by half. Read a low IC50 as greater potency in that assay.
